From patent publication US20090149494A1, “THERAPEUTIC USE OF IMIDAZO[1,2-a]PYRIDINE-2-CARBOXAMIDE DERIVATIVES” (SANOFI-AVENTIS, priority 2006, published 2009)

Tests used:
human NOT receptor = experiment: Binding to the human NOT receptor by SPR (Biacore); conditions: immobilized GST-NOT (NOT-FL) and His-Thr-NOT 329-598, 3.75 to 0.1 μM, 4° C.
Procedure: The direct binding between compounds of the invention and the human NOT receptor was evaluated using the SPR (surface plasmon resonance) technique. In this test, the protein is immobilized covalently on the matrix and the test molecule is injected into the chamber containing the sensor chip. The signal is directly proportional to the amount of product bound to the protein. The binding tests were performed in a Biacore S51 machine (Biacore Inc., Piscataway N.J.). The entire GST-NOT protein (NOT-FL) was supplied by Invitrogen (PV3265). The domain for binding to the NOT ligand (His-Thr-NOT 329-598) was expressed and purified as described in Nature 423, 555-560. The two proteins, diluted to a concentration of 20 μg/ml in pH 5.0 acetate buffer containing 5 mM of DTT, were immobilized on a surface of carboxymethyl 5′ dextran (CM5 sensor chip, Biacore Inc.) via amine coupling according to the protocol recommended by Biacore, eluting with an HBS-N buffer (10 mM HEPES, 0.15 M NaCl, 3 mM EDTA, pH 7.4). Approximately 10 000-15 000 resonance units (R^U) of the proteins are captured on the surface of the sensor chip CM5. […] The dissociation was recorded for 5 minutes without any other surface regeneration procedure. […]

murine Nurr1 receptor = biological target: T1, murine Nurr1 receptor (Mus musculus, UniProt Q06219); experiment: In vitro activity on N2A cells (NBRE-luciferase reporter); assay type: cell-based; conditions: N2A-8NBRE-luciferase cells, 24 hours incubation
T1 construct: endogenously expressing the murine Nurr1 receptor; host or cells: Neuro-2A (N2A) mouse neuroblastoma cells stably transfected with 8NBRE-luciferase
T1 sequence (Q06219 whole entry): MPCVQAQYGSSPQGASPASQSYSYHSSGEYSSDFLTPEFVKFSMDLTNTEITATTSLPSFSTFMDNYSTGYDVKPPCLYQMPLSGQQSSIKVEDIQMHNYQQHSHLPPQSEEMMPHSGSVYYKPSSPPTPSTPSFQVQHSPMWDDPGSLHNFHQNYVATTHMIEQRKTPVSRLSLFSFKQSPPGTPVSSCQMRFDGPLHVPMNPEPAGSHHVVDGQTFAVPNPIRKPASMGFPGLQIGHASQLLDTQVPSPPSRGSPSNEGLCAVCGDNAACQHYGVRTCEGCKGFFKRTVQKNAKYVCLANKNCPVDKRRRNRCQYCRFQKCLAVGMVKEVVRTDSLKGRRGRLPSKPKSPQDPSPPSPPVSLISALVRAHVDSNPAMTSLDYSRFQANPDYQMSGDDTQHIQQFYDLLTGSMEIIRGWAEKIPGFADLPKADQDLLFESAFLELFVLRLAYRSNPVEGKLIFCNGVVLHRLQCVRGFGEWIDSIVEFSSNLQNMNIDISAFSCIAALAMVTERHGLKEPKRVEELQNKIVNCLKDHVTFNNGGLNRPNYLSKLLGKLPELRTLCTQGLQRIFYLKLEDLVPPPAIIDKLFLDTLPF
Procedure: The tests consisted in evaluating the in vitro activity of the compounds of the invention on a cell line (N2A) endogenously expressing the murine Nurr1 receptor and stably transfected with the NOT binding response element (NBRE) coupled to the luciferase reporter gene. The EC50 values are between 0.01 and 1000 nM. The tests were performed according to the procedure described hereinbelow.
The cell line Neuro-2A is obtained from a standard commercial source (ATCC). The clone Neuro-2A was obtained from a spontaneous tumor originating from a strain of albino mice A by R. J Klebe et al. This line Neuro-2A is then stably transfected with 8NBRE-luciferase. The N2A-8NBRE cells are cultured to the point of confluence in 75 cm^2 culture flasks containing DMEM supplemented with 10% fetal calf serum, 4.5 g/L of glucose and 0.4 mg/ml of geneticin. After culturing for one week, the cells are recovered with 0.25% trypsin for 30 seconds and then resuspended in DMEM without phenol red, containing 4.5 g/L of glucose and 10% Hyclone defatted serum, and placed in white, transparent-based 96-well plates. The cells are deposited at a rate of 60 000 per well in 75 μL for 24 hours before adding the products. The products are applied in 25 μL and incubated for a further 24 hours. […] The plates are then measured in a microplate luminescence counter, after having been sealed with an adhesive film. […]

SMILES	affinity (classified by maximum binding level and kinetic parameters of binding) (human NOT receptor)	EC50 (murine Nurr1 receptor)
O=C(Nc1ccccc1)c1cn2ccccc2n1 [compound 1]	moderate affinity	5.5 nM
O=C(Nc1ccc(F)cc1)c1cn2cc(Cl)ccc2n1 [compound 2]		17 nM
